Measurements from patent US20140242174A1, “TREATING COUGH AND TUSSIVE ATTACKS” (VERONA PHARMA PLC, priority 2011, published 2014).

Columns and labels:
[1] = tested on: intractable, persistent cough due to interstitial lung disease; experiment: Double blind, randomized, placebo-controlled, cross-over clinical study of inhaled carcainium chloride; format: in vivo, human
Description: The aim of the clinical study was to determine the clinical effectiveness and safety of carcainium chloride by the inhaled route in hospital in-patients with intractable, persistent cough due to interstitial lung disease.
A double blind, randomized, placebo-controlled, cross-over study design was used to assess the effect of carcainium chloride as an anti-tussive in patients with interstitial lung disease.
The study was constructed as an adaptive contingency trial. In such a trial the outcome of each “test” of the drug against placebo is scored as either a positive or negative result (i.e. a binary decision, rather than a quantitative measure). Based on the outcome of this “test”, the trial either continues or halts. Patients attended two study visits where they were randomised to receive either: • carcainium chloride at a dose of 1.0 mg/kg on the first study visit followed by placebo (sodium chloride 0.9%) on the second visit; or • placebo (sodium chloride 0.9%) on the first visit followed by carcainium chloride at 1.0 mg/kg on the second visit.
Assessment of each patient was based on the following criteria. • 1 A physician's professional judgment of individual patient responses in a double blind crossover study with carcainium chloride and placebo in terms of anti-tussive action. • 2. Each patient's subjective comfort using a visual analogue scale (VAS), pre- and post-treatment. • 3. Each patient's coughs recorded in pre- and post-treatment periods for active and placebo treatments.
Carcainium chloride is a fine white dry powder and was provided in tightly closed vessels and stored in dark at room temperature upon receipt. The vehicle used for the dilution of carcainium chloride and for the placebo was 0.9% NaCl injection.
Patients were then administered the active or placebo sample, according to the above schedule, as an aerosol generated using an ultrasonic nebulizer (DeVilbiss Ultraneb).
In 8 out of 8 trials, the two physicians acting in concert successfully identified the active treatment carcainium chloride. The outcome of this assessment or “test” after each study treatment administered was either a success in which an ‘anti-tussive’ effect was observed (i.e. positive) or a failure which was defined as no change from baseline or pro-tussive effect (i.e. negative). The clinical investigator decided on a positive or negative outcome for each “test” in a blinded fashion. The statistical significance of this finding is <0.05 by contingency table, 0.05-0.01 by Chi square.
This was assessed on a 0-10 equal interval scale in the pre-drug and post-drug periods for active drug and placebo periods.
The frequency of cough (number per unit time) was recorded using a semi-automated system which records cough epochs (sounds) that are counted by a qualified technician.

irritant-induced cough = details: healthy human volunteers; Phase II; cited from earlier work
[2] = LC/MS/MS measurement of carcainium chloride concentrations in human plasma; format: in vivo; details: patients administered 1 mg/kg carcainium chloride by inhalation; K2EDTA plasma
Experimental: A liquid chromatography/tandem mass spectrometry (LC/MS/MS) assay method was developed, qualified, and implemented for the quantitation of carcainium chloride levels in K2EDTA human plasma samples collected from the human clinical study detailed above.
Initially, carcainium chloride was dissolved in deionized water to provide an initial standard or quality control (QC) stock solution at a concentration of 1000 μg/mL. Serial dilutions were carried out with deionized water to provide secondary stock solutions for subsequent preparation of plasma calibration standards or QC samples according to Table 1 below. The internal standard lidocaine was dissolved in deionized water to provide an initial stock solution at a concentration of 1000 μg/mL. The initial internal standard stock solution was then serially diluted with deionized water to provide a spiking stock solution concentration of 50 ng/mL.
A 10 μL aliquot of calibration standard stock solution or QC stock solution was transferred into individual 16×100 mm screw cap glass test tubes. For blank and blank with internal standard samples, 10 μL of deionized water was transferred instead. Human blank K2EDTA plasma (100 μL) was then added to each tube. A 50 μL aliquot of lidocaine internal standard spiking stock solution was transferred to each tube except for blank samples. A 50 μL aliquot of deionized water was added to blank samples. […]

For `C[N+](C)(CC(=O)Nc1ccccc1)CC(=O)Nc1ccccc1.[Cl-]` [carcainium chloride, N,N-Bis-(phenylcarbamoylmethyl) dimethylammonium chloride], the “Drug related adverse side effects in the human clinical study” value ([1]; 1 mg/kg inhaled) was “no significant drug related adverse side effects”, the “Number of coughs recorded electronically (frequency of cough)” value ([1]; 1.0 mg/kg inhaled vs placebo, p=0.0007) was “statistically significant treatment effect” and the “Patient comfort score (VAS, 0-10 scale), pre- and post-drug” value ([1]; 1.0 mg/kg inhaled vs placebo, p=0.0140 by sum of signed ranks) was “statistically significant improvement in patient well-being”. The “Physician assessment: trials in which the two physicians successfully identified the active treatment (anti-tussive effect)” value ([1]; 1.0 mg/kg inhaled, ultrasonic nebulizer, vs placebo 0.9% NaCl, blinded, significance <0.05 by contingency table, 0.05-0.01 by Chi square) was 8 out of 8, the “Anti-tussive activity, summary of the clinical study” value ([1]; preliminary analysis, all three measures statistically significant) was “marked anti-tussive activity” and the melting point was 177 to 178 °C. The “Ability to inhibit cough (increase of the amount of irritant required to induce cough)” value (irritant-induced cough) was “no statistically significant ability to inhibit cough” and the “Concentration of carcainium chloride in plasma samples” value [2] was 1 to 50 ng/mL.
